Test results published in publication PMC11766267 (International Journal of Molecular Sciences, 2025).

System: HCT-116
Test: MTT cytotoxicity assay, HCT-116
Assay type: cell-based
Conditions: Homo sapiens, 24 h treatment, mean ± SD of triplicate
Protocol: (§1) Subsequently, 100 µL of dimethyl sulfoxide was introduced to dissolve the insoluble formazan.
For `COc1ccc(C(=O)/C=C/c2ccccc2)cc1` [Compound 4m, (E)-1-(4-Methoxyphenyl)-3-phenylprop-2-en-1-one], the IC50 was 59.6 ± 3.5 µM.
In the case of `COc1ccc(C(=O)/C=C/c2ccc(Cl)cc2)cc1` [Compound 4n, (E)-3-(4-Chlorophenyl)-1-(4-methoxyphenyl)prop-2-en-1-one], the IC50 is reported as 66.1 ± 3.8 µM.
`COc1ccc(/C=C/C(=O)c2ccc(OC)cc2)cc1` [Compound 4o, (E)-1,3-bis(4-Methoxyphenyl)prop-2-en-1-one] showed an IC50 of 89.2 ± 4.5 µM.
With `COc1cccc(C(=O)/C=C/c2cccc(OCc3ccccc3)c2)c1` [Compound 4p, (E)-3-(3-(Benzyloxy)phenyl)-1-(3-methoxyphenyl)prop-2-en-1-one] the IC50 was 39.8 ± 2.4 µM.
Compound `COc1ccc(C(=O)/C=C/c2cccc(OCc3ccccc3)c2)cc1` [Compound 4r, (E)-3-(3-(Benzyloxy)phenyl)-1-(4-methoxyphenyl)prop-2-en-1-one] has an IC50 of 62.6 ± 3.7 µM.
Compound `COc1ccc(C(=O)/C=C/c2ccc(OCc3ccccc3)cc2)cc1` [Compound 4s, (E)-3-(4-(Benzyloxy)phenyl)-1-(4-methoxyphenyl)prop-2-en-1-one] has an IC50 of 73.5 ± 3.9 µM.

System: MDA-MB-231
Test: MTT cytotoxicity assay, MDA-MB-231
Assay type: cell-based
Conditions: Homo sapiens, 24 h treatment, mean ± SD of triplicate
Protocol: as §1
For `COc1ccc(C(=O)/C=C/c2ccccc2)cc1` [Compound 4m, (E)-1-(4-Methoxyphenyl)-3-phenylprop-2-en-1-one], the IC50 was 45.9 ± 2.6 µM.
Compound `COc1ccc(C(=O)/C=C/c2ccc(Cl)cc2)cc1` [Compound 4n, (E)-3-(4-Chlorophenyl)-1-(4-methoxyphenyl)prop-2-en-1-one] has an IC50 of 48.6 ± 2.8 µM.
`COc1ccc(/C=C/C(=O)c2ccc(OC)cc2)cc1` [Compound 4o, (E)-1,3-bis(4-Methoxyphenyl)prop-2-en-1-one] gave an IC50 of 73.5 ± 4 µM.
In the case of `COc1cccc(C(=O)/C=C/c2cccc(OCc3ccccc3)c2)c1` [Compound 4p, (E)-3-(3-(Benzyloxy)phenyl)-1-(3-methoxyphenyl)prop-2-en-1-one], the IC50 is reported as 68.4 ± 3.7 µM.
Compound `COc1ccc(C(=O)/C=C/c2cccc(OCc3ccccc3)c2)cc1` [Compound 4r, (E)-3-(3-(Benzyloxy)phenyl)-1-(4-methoxyphenyl)prop-2-en-1-one] has an IC50 of 51.8 ± 2.9 µM.
In the case of `COc1ccc(C(=O)/C=C/c2ccc(OCc3ccccc3)cc2)cc1` [Compound 4s, (E)-3-(4-(Benzyloxy)phenyl)-1-(4-methoxyphenyl)prop-2-en-1-one], the IC50 is reported as 82.4 ± 4.1 µM.

System: HeLa
Test: MTT cytotoxicity assay, HeLa
Assay type: cell-based
Conditions: Homo sapiens, 24 h treatment, mean ± SD of triplicate
Protocol: as §1
With `COc1ccc(C(=O)/C=C/c2ccccc2)cc1` [Compound 4m, (E)-1-(4-Methoxyphenyl)-3-phenylprop-2-en-1-one] the IC50 was 63.6 ± 3.7 µM.
For `COc1ccc(C(=O)/C=C/c2ccc(Cl)cc2)cc1` [Compound 4n, (E)-3-(4-Chlorophenyl)-1-(4-methoxyphenyl)prop-2-en-1-one], the IC50 was 74.5 ± 3.9 µM.
For `COc1ccc(/C=C/C(=O)c2ccc(OC)cc2)cc1` [Compound 4o, (E)-1,3-bis(4-Methoxyphenyl)prop-2-en-1-one], the IC50 was > 100 µM.
`COc1cccc(C(=O)/C=C/c2cccc(OCc3ccccc3)c2)c1` [Compound 4p, (E)-3-(3-(Benzyloxy)phenyl)-1-(3-methoxyphenyl)prop-2-en-1-one] showed an IC50 of 45.2 ± 2.4 µM.
With `COc1ccc(C(=O)/C=C/c2cccc(OCc3ccccc3)c2)cc1` [Compound 4r, (E)-3-(3-(Benzyloxy)phenyl)-1-(4-methoxyphenyl)prop-2-en-1-one] the IC50 was 57 ± 3.2 µM.
For `COc1ccc(C(=O)/C=C/c2ccc(OCc3ccccc3)cc2)cc1` [Compound 4s, (E)-3-(4-(Benzyloxy)phenyl)-1-(4-methoxyphenyl)prop-2-en-1-one], the IC50 was 87 ± 4.3 µM.

System: MCF-7
Test: MTT cytotoxicity assay, MCF-7
Assay type: cell-based, human
Conditions: Homo sapiens, MCF7, 24 h, 24 h treatment, mean ± SD of triplicate
Protocol: as §1
`COc1ccc(C(=O)/C=C/c2ccccc2)cc1` [Compound 4m, (E)-1-(4-Methoxyphenyl)-3-phenylprop-2-en-1-one] gave an IC50 of 33 ± 2 µM.
For `COc1ccc(C(=O)/C=C/c2ccc(Cl)cc2)cc1` [Compound 4n, (E)-3-(4-Chlorophenyl)-1-(4-methoxyphenyl)prop-2-en-1-one], the IC50 was 37 ± 2.3 µM.
`COc1ccc(/C=C/C(=O)c2ccc(OC)cc2)cc1` [Compound 4o, (E)-1,3-bis(4-Methoxyphenyl)prop-2-en-1-one] gave an IC50 of 61.9 ± 3.4 µM.
For `COc1cccc(C(=O)/C=C/c2cccc(OCc3ccccc3)c2)c1` [Compound 4p, (E)-3-(3-(Benzyloxy)phenyl)-1-(3-methoxyphenyl)prop-2-en-1-one], the IC50 was 57.1 ± 3.2 µM.
Work on `COc1ccc(C(=O)/C=C/c2cccc(OCc3ccccc3)c2)cc1` [Compound 4r, (E)-3-(3-(Benzyloxy)phenyl)-1-(4-methoxyphenyl)prop-2-en-1-one] yielded an IC50 of 39.3 ± 2.4 µM.
In the case of `COc1ccc(C(=O)/C=C/c2ccc(OCc3ccccc3)cc2)cc1` [Compound 4s, (E)-3-(4-(Benzyloxy)phenyl)-1-(4-methoxyphenyl)prop-2-en-1-one], the IC50 is reported as 64.2 ± 3.5 µM.

System: not listed separately
Test: MTT cytotoxicity assay, normal cell line WI-38
Assay type: cell-based, human
Conditions: human, WI-38 cells (normal human lung fibroblasts), normal (non-cancer) cell line, 24 h treatment
Protocol: as §1
With `COc1ccc(C(=O)/C=C/c2ccccc2)cc1` [Compound 4m, (E)-1-(4-Methoxyphenyl)-3-phenylprop-2-en-1-one] the IC50 at 24 h was 87.6 ± 4.6 µM.
In the case of `COc1ccc(C(=O)/C=C/c2ccc(Cl)cc2)cc1` [Compound 4n, (E)-3-(4-Chlorophenyl)-1-(4-methoxyphenyl)prop-2-en-1-one], the IC50 at 24 h is reported as 61.5 ± 3.4 µM.
In the case of `COc1ccc(/C=C/C(=O)c2ccc(OC)cc2)cc1` [Compound 4o, (E)-1,3-bis(4-Methoxyphenyl)prop-2-en-1-one], the IC50 at 24 h is reported as 24.2 ± 1.7 µM.
Work on `COc1cccc(C(=O)/C=C/c2cccc(OCc3ccccc3)c2)c1` [Compound 4p, (E)-3-(3-(Benzyloxy)phenyl)-1-(3-methoxyphenyl)prop-2-en-1-one] yielded an IC50 at 24 h of 92.1 ± 4.9 µM.
With `COc1ccc(C(=O)/C=C/c2cccc(OCc3ccccc3)c2)cc1` [Compound 4r, (E)-3-(3-(Benzyloxy)phenyl)-1-(4-methoxyphenyl)prop-2-en-1-one] the IC50 at 24 h was > 100 µM.
`COc1ccc(C(=O)/C=C/c2ccc(OCc3ccccc3)cc2)cc1` [Compound 4s, (E)-3-(4-(Benzyloxy)phenyl)-1-(4-methoxyphenyl)prop-2-en-1-one] showed an IC50 at 24 h of 22.3 ± 1.6 µM.

System: HCT-116, MDA-MB-231, HeLa, and MCF-7
Test: MTT cytotoxicity assay, ranges stated over several cell lines
Assay type: cell-based
Conditions: Homo sapiens, HCT-116, MDA-MB-231, HeLa, MCF-7; range; read-out: IC50 values, range over the cancer cell lines tested
Protocol: as §1
Compound `COc1ccc(C(=O)/C=C/c2ccccc2)cc1` [Compound 4m, (E)-1-(4-Methoxyphenyl)-3-phenylprop-2-en-1-one] has an IC50 of 23.5 to 74.5 µM.
With `COc1ccc(C(=O)/C=C/c2ccc(Cl)cc2)cc1` [Compound 4n, (E)-3-(4-Chlorophenyl)-1-(4-methoxyphenyl)prop-2-en-1-one] the IC50 was 23.5 to 74.5 µM.
Compound `COc1ccc(/C=C/C(=O)c2ccc(OC)cc2)cc1` [Compound 4o, (E)-1,3-bis(4-Methoxyphenyl)prop-2-en-1-one] has an IC50 of 61.9 to 91.7 µM.
With `COc1cccc(C(=O)/C=C/c2cccc(OCc3ccccc3)c2)c1` [Compound 4p, (E)-3-(3-(Benzyloxy)phenyl)-1-(3-methoxyphenyl)prop-2-en-1-one] the IC50 was 23.5 to 74.5 µM.
Compound `COc1ccc(C(=O)/C=C/c2cccc(OCc3ccccc3)c2)cc1` [Compound 4r, (E)-3-(3-(Benzyloxy)phenyl)-1-(4-methoxyphenyl)prop-2-en-1-one] has an IC50 of 23.5 to 74.5 µM.
`COc1ccc(C(=O)/C=C/c2ccc(OCc3ccccc3)cc2)cc1` [Compound 4s, (E)-3-(4-(Benzyloxy)phenyl)-1-(4-methoxyphenyl)prop-2-en-1-one] showed an IC50 of 61.9 to 91.7 µM.

System: MCF-7
Test: In vitro anti-estrogenic activity assay, MCF-7
Conditions: cell count relative to the control (17β-E2)
With `C[C@]12CC[C@@H]3c4ccc(O)cc4CC[C@H]3[C@@H]1CC[C@@H]2O` [Compound 17β-E2, 17β estradiol, reference compound] the “Cell Proliferation MCF-7 %” value was 100%.

Same assay, conditions: mean ± SD of triplicate
With `C[C@]12CC[C@@H]3c4ccc(O)cc4CC[C@H]3[C@@H]1CC[C@@H]2O` [Compound 17β-E2, 17β estradiol, reference compound] the “Cell Proliferation MCF-7 Cell Count” value was 18,524 ± 659.

System: MCF-7a
Test: In vitro anti-estrogenic activity assay, MCF-7a
Conditions: cell count relative to the control (17β-E2)
For `C[C@]12CC[C@@H]3c4ccc(O)cc4CC[C@H]3[C@@H]1CC[C@@H]2O` [Compound 17β-E2, 17β estradiol, reference compound], the “Cell Proliferation MCF-7a %” value was 100%.

Same assay, conditions: mean ± SD of triplicate
For `C[C@]12CC[C@@H]3c4ccc(O)cc4CC[C@H]3[C@@H]1CC[C@@H]2O` [Compound 17β-E2, 17β estradiol, reference compound], the “Cell Proliferation MCF-7a Cell Count” value was 20,776 ± 600.
